SMILES strings stand for the structures. Where “and” joins values, the source holds several entries; their conditions need not be identical. Identical values can stand only once. Like-named read-outs stand apart in the source and are kept apart here.

The experiment deals with T1, GCaMP5-expressing T. gondii.
T1 construct: whole extracellular parasites expressing GCaMP5 Ca2+ sensor
Details: species or system GCaMP5-expressing Toxoplasma gondii, extracellular; GCaMP5 fluorescence (cytosolic Ca2+) after 100 uM zaprinast in compound-pretreated extracellular parasites, background-subtracted, relative to zaprinast alone. Particulars: 0.23 h; for fold change in fluorescence relative to zaprinast alone: 100 uM zaprinast stimulation, 10 min pretreatment, mean of two replicates. The procedure:
GCaMP5-expressing parasites were suspended in Ringer's solution at 4 × 10^7 parasites/ml, and 50 μl of parasites were applied to each well of a 96-well plate (Costar, catalog no. 3631). […] Parasites were then treated with 100 μM zaprinast or 0.1% DMSO as a vehicle control and incubated at 37 °C with 5% CO2 for an additional 4 min before measuring fluorescence with excitation and emission wavelengths of 485 and 525 nm, respectively, on a SpectraMax M3 (Molecular Devices). Basal fluorescence, measured from untreated parasites, was subtracted from all values, and results were expressed as -fold change from parasites treated only with zaprinast. Z′ factors were determined from (i) parasites treated with zaprinast versus untreated parasites and (ii) parasites treated with a final concentration of 1 μM Cpd2 or a vehicle control followed by zaprinast, using the formula, Z′ = 1 − 3(σp + σn)/(|μp − μn|), where σp and σn indicate S.D. values of positive and negative controls, and μp and μn indicate the means of positive and negative controls, respectively. […] We predicted that the zaprinast response measured in GCaMP5-expressing parasites could form the basis for a phenotypic screen. Such a screen would benefit from the known importance of Ca^2+ signaling in parasite biology along with the reported success rate of cell-based phenotypic assays. We designed a screen wherein extracellular GCaMP5-expressing parasites were pretreated with compounds for 10 min before stimulation with zaprinast, and parasite fluorescence was measured 4 min later. We expected that compounds that interfered with the zaprinast response would reduce fluorescence. We calculated a Z′-factor for this screen to determine its dynamic range and suitability to high throughput screening. To do so, we compared zaprinast-treated parasites to untreated parasites or those pretreated with the PKG inhibitor Compound 2 (Cpd2) ([55]). […] We obtained the compound libraries published kinase inhibitor sets PKIS1 ([57]) and PKIS2 (unpublished), from GlaxoSmithKline and applied our phenotypic screen to the 823 ATP mimetics represented in these collections (Fig. 2B and supplemental Table S1). The compounds were screened at a single 10 μM dose with two biological replicates.

As for `CC1=C(C(=O)Nc2cc3cn[nH]c3cc2F)C(c2ccc(C(F)(F)F)cc2)CC(=O)N1` (stereo not drawn) [GSK429286A], the “fold change in fluorescence relative to zaprinast alone” value was 1.046.

Take `COc1cccc(C2=C(Nc3cccc(C(=O)O)c3)C(=O)NC2=O)c1` [SB-390770]: the “fold change in fluorescence relative to zaprinast alone” value was 0.98.

As for `CN(C)c1ncnc2nc[nH]c12` [SKF-31736], the “fold change in fluorescence relative to zaprinast alone” value came out at 1.087. The same measure, in the same setting: the same measure for `COc1cc(Nc2nccc(N3CCC(NC(=O)Nc4ccc5c(c4)OCO5)C3)n2)cc(OC)c1OC` (stereo not drawn) [GSK1379766A]: 1.478; for `CCOc1ccc2c(-c3ccnc(Nc4cccc(C(F)(F)F)c4)n3)cnn2n1` [GW811761X]: 1.047. Take `CCn1c(-c2nonc2N)nc2cncc(C(=O)N3CCNCC3)c21` [SB-759335-B]: the “fold change in fluorescence relative to zaprinast alone” value is reported as 1.333. For `O=C(NCCNc1ccnc(Nc2ccc(F)cc2)n1)Nc1ccc2c(c1)OCO2` [GSK1379882A], the “fold change in fluorescence relative to zaprinast alone” value worked out at 1.425. As to `COc1ccc(NC(=O)c2ccoc2)cc1-c1ccc(C(=O)NCC2CC2)cc1` [GW810437X], the “fold change in fluorescence relative to zaprinast alone” value stood at 1.267. Consider `Nc1ncnc2c1nc(-c1ccccc1)n2-c1ccccc1` [SKF-97293], for which the “fold change in fluorescence relative to zaprinast alone” value stood at 1.205. The same measure, in the same setting: the same measure for `COc1ccc(Nc2nccc(N3CCC(NC(=O)Nc4ccc5c(c4)OCO5)C3)n2)cc1` (stereo not drawn) [GSK1379745A]: 1.223; for `COc1cc(Nc2nccc(N3CCC(NC(=O)c4cccc(NC(C)=O)c4)C3)n2)cc(OC)c1OC` (stereo not drawn) [GSK1379754A]: 1.271. On the same count and under the same terms, for `COc1cc(Nc2ncc3c(C)nc(-c4cccc(Oc5ccccc5)c4)n3n2)cc(OC)c1OC` [GW861893X] the value was 0.7386.

For `CC(C)(C)c1ccc2nccc(Nc3cccc(O)c3)c2c1` [GW856795X], the “fold change in fluorescence relative to zaprinast alone” value is listed as 0.1562. On the same count and under the same terms, the same measure for `COc1cc(/C=N/Nc2ncnc3[nH]ncc23)ccc1O` [GW578748X]: 0.8277. Still for that read-out and setting: for `CCn1c(-c2nonc2N)nc2c(C#CC(C)(C)O)nc(OC[C@@H](N)c3ccccc3)cc21` [GSK938890A] the value was 1.022; for `O=C(Nc1n[nH]c2nc(-c3ccccc3)c(Cl)cc12)C1CC1` [SB-734909], 1.154. On the same count and under the same terms, for `c1ccc(-c2[nH]ncc2-c2ccnc(-c3ccc(CNC4CCOCC4)cc3)c2)nc1` [GW709213X] the value was 1.08. Turning to `Cc1ccc(NC(=O)Nc2cccc(C(F)(F)F)c2)cc1` [GSK955403A], the “fold change in fluorescence relative to zaprinast alone” value turned out to be 0.9183. Same read-out and setting: for `COc1cccc(-c2c[nH]c3c(N/N=C/c4ccncc4)ncnc23)c1` [GW814408X] the value was 0.6391. On the same count and under the same terms, for `NS(=O)(=O)c1ccc(-c2cc3ccncc3cc2OCc2ccccc2)cc1` [GSK953913A] the value was 1.131.

With `Nc1[nH]nc2ncc(-c3ccccc3)cc12` [SB-517081], the “fold change in fluorescence relative to zaprinast alone” value was 0.8708.

With `COC(=O)Nc1nc2ccc(Oc3ccc(NC(=O)Nc4cc(C(F)(F)F)ccc4F)cc3)cc2[nH]1` [GW654607A], the “fold change in fluorescence relative to zaprinast alone” value is given as 1.325. Take `Fc1ccc(-c2nn3ccccc3c2-c2ccncc2)cc1` [GW434756X]: the “fold change in fluorescence relative to zaprinast alone” value was determined as 0.1696. As for `CC(C)c1ccc(Nc2nccc(-c3cnn4ncccc34)n2)cc1` [GW805758X], the “fold change in fluorescence relative to zaprinast alone” value turned out to be 0.2516. `O=C(Nc1n[nH]c2nc(-c3ccco3)c(Br)cc12)C1CCN(Cc2ccccc2)C1` (stereo not drawn) [SB-742034-AC]: the “fold change in fluorescence relative to zaprinast alone” value is 0.9039. `O=C(Nc1n[nH]c2nnc(-c3cccnc3)cc12)C1CC1` [SB-675259-M]: the “% of control remaining” value (10 µM) was 1.147. Regarding `CN1C(=O)C(Nc2ccc(Cl)c(C(=O)O)c2)=C(c2ccc(Cl)cc2)C1=O` [SB-404290], the “fold change in fluorescence relative to zaprinast alone” value was found to be 0.783. Still for that read-out and setting: the same measure for `Fc1cc(Cl)ccc1Nc1ccnc2cc(-c3ccc(CN4CCOCC4)o3)ccc12` [GW560109X]: 0.545; for `FC(F)(F)c1cccc(Nc2nccc(-c3cnn4nc(-c5ccccc5)ccc34)n2)c1` [GW819077X]: 0.1467. For the compound `Cc1cccc(Nc2nc(N[C@H]3CCNC3)ncc2C(N)=O)c1` [GSK2197149A], the “fold change in fluorescence relative to zaprinast alone” value amounted to 1.037. On the same count and under the same terms, the same measure for `Cn1ncc2c(N)ncnc21` [SKF-18267]: 0.9633. `NC(=O)c1cccc(Nc2nccc(Nc3ccc(Oc4c(Cl)cccc4Cl)c(Cl)c3)n2)c1` [GW659009A]: the “fold change in fluorescence relative to zaprinast alone” value is 1.248.

Turning to `Cc1nnc(-c2ccc(C)c(-c3ccc(C(=O)O)cc3)c2)o1` [GW608005X], the “fold change in fluorescence relative to zaprinast alone” value was 1.249.

As for `COC(=O)c1cccc(NC(=O)NC2CCN(c3ccnc(NCc4ccc(F)cc4)n3)CC2)c1` [GSK1379860A], the “fold change in fluorescence relative to zaprinast alone” value was determined as 0.8716. `O=C(Nc1ccc2c(c1)OCO2)NC1CCN(c2ccnc(Nc3ccc(F)cc3)n2)C1` (stereo not drawn) [GSK1379724A]: the “fold change in fluorescence relative to zaprinast alone” value was 0.9401.

In the case of `O=C(Nc1n[nH]c2nc(-c3cccc(O)c3)ccc12)C1CC1` [SB-711805], the “fold change in fluorescence relative to zaprinast alone” value was determined as 0.905. Consider `COC(=O)Nc1nc2cc(Oc3cccc(NC(=O)Nc4cc(C(F)(F)F)ccc4F)c3)ccc2[nH]1` [GW659386A], for which the “fold change in fluorescence relative to zaprinast alone” value (10 µM) is 1.116 and 1.187.

Take `COc1cc(Nc2ncc(-c3ccccc3)o2)cc(OC)c1OC` [GW627512B]: the “fold change in fluorescence relative to zaprinast alone” value was found to be 0.9208. `O=C(Nc1n[nH]c2nc(-c3ccccc3O)ccc12)C1CC1` [SB-711880]: the “fold change in fluorescence relative to zaprinast alone” value was determined as 1.267.

In the case of `O=C(Nc1n[nH]c2cc(-c3ccccc3)ccc12)C1CC1` [SB-732941], the “fold change in fluorescence relative to zaprinast alone” value is reported as 1.147.

`CN(C)C(=O)O[C@H]1CN[C@H](C#Cc2cc3ncnc(Nc4ccc(OCc5cccc(F)c5)c(Cl)c4)c3s2)C1` [GSK182497A]: the “fold change in fluorescence relative to zaprinast alone” value stood at 1.183. For `CCN1CCN(CCCC(=O)Nc2n[nH]c3nc(-c4ccc(O)cc4)c(Br)cc23)CC1` [SB-731579], the “fold change in fluorescence relative to zaprinast alone” value was 1.047. Turning to `COc1cc(/C=N/Nc2ncnc3c2cnn3C(C)C)ccc1O` [GW644007X], the “% of control remaining” value (10 µM) worked out at 1.177. Turning to `Cc1cc(O)cc(C)c1/C=C/c1cncc(C(=O)N(C)C)c1` [GW427984X], the “fold change in fluorescence relative to zaprinast alone” value is recorded as 1.241. Same read-out and setting: the same measure for `NS(=O)(=O)c1ccc(N/N=C2\C(=O)Nc3cccc(CCc4ccncc4)c32)cc1` [GW352430A]: 1.031; for `Cc1c2ccc(N(C)c3ccnc(Nc4cccc(S(N)(=O)=O)c4)n3)cc2nn1C` [GW771127A]: 1.211; for `Cc1nnc(-c2ccc(C)c(-c3ccc(C(=O)NCc4ccc(Cl)cc4)cc3)c2)o1` [GW708893X]: 1.038. The same measure, in the same setting: the same measure for `NS(=O)(=O)c1cccc(-c2ccc3c(NC(=O)C4CC4)n[nH]c3c2)c1` [SB-741905]: 1.374; for `COc1ccc(-n2cnc3c(N)ncnc32)cc1` [SKF-97236]: 1.027.

Turning to `O=C(Nc1n[nH]c2cc(-c3ccsc3)ccc12)C1CC1` [SB-732932], the “fold change in fluorescence relative to zaprinast alone” value is on record as 1.052. The same measure, in the same setting: for `NCC(C(=O)Nc1cc(Br)c(-c2ccnc3[nH]ccc23)s1)c1ccccc1` (stereo not drawn) [GSK1269851A] the value was 0.2436; for `OCc1ccc(-c2nc(-c3ccc4c(c3)OCO4)c(-c3ccccn3)[nH]2)cc1` [SB-431533], 1.145; for `C[C@@H](Oc1cc(-n2cnc3ccc(OC4CCN(C)CC4)cc32)sc1C(N)=O)c1ccccc1Cl` [GSK579289A], 0.9541. The same measure, in the same setting: for `Cc1ccc2c(c1)/C(=N/Nc1ccc(S(N)(=O)=O)cc1)C(=O)N2` [GW275944X] the value was 1.616; for `Nc1nccc(-c2c(-c3ccc(F)cc3)nn3cc(C(F)(F)F)ccc23)n1` [GW568326X], 1.261; for `Nc1nccc(-c2ccc3c(N)n[nH]c3c2)n1` [GSK1034945A], 1.107.

Consider `NS(=O)(=O)c1ccc(-c2ccc3c(NC(=O)C4CC4)n[nH]c3c2)cc1` [SB-738482], for which the “fold change in fluorescence relative to zaprinast alone” value was determined as 1.098.
